According to patent US12686694B2, “Method of extracting carbonic acid, aliphatic acids, esters and alcohols from an aqueous medium” (EVONIK OPERATIONS GMBH, priority 2019, dated 2026):

Assay: Extraction of hexanol from aqueous solution with trialkylphosphine in alkane or pure trialkylphosphine
Assay type: physicochemical
[1] = hexanol extraction without buffer in aqueous phase, mass ratio 9 to 1
[2] = with ammonium acetate buffer in aqueous phase, mass ratio 9 to 1

**Q.** Which “Equilibrium pH” value (hexanol extraction without buffer in aqueous phase) does the source give for `CCCCCCCCCCCCCC` [none (100% tetradecane), tetradecane] here?
**A.** Its value is 7.01.

**Q.** And the “Aq. Hexanoic acid conc. (after)” value [1]?
**A.** The value was 2.40 g/kg.

**Q.** And the “Aq. Hexanoic acid conc. (before)” value [1]?
**A.** Its value is 3.70 g/kg.

**Q.** And the “Aq. Hexanol conc. (after)” value [2]?
**A.** The value was 2.75 g/kg.

**Q.** And the “Org. Hexanol conc.” value [2]?
**A.** Its value is 12.44 g/kg.

**Q.** What about the “Org. Hexanol conc.” value (without buffer in aqueous phase, mass ratio 9 to 1) of the same molecule?
**A.** The value was 11.65 g/kg.
